The results in this text go back to patent US20220033407A1, “N-(pyridin-2-ylsulfonyl)cyclopropanecarboxamide Derivatives and their Use in the Treatment of Disease” (NOVARTIS AG, priority 2018, published 2022).

pEC50: −log10 of the molar value.

Experiment [1] addresses T1, delF508-CFTR-HRP (Homo sapiens, UniProt P13569, DEL508-508).
T1 construct: expressed in transfected cells
Description: Measurement of delF508-CFTR-HRP surface expression in CFBE41o- cells (HRP luminescence).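 As to DelF508-CFTR-HRP Amax %: percent efficacy relative to a reference CFTR corrector compound.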 It is filed as cell-based. The note with it: for Emax: CFBE41o-, read-out: DelF508-CFTR-HRP Amax %; for pEC50: mean of at least two replicates. In outline: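 EC50 derived by logistic regression of triplicate surface-HRP luminescence, plate-normalized to the lowest-concentration median. Doxycycline (500 ng/mL, 48 h) induced delF508-CFTR-HRP in CFBE41o- cells; compounds then applied 24 h at 37° C, 10 μM top, 3-fold over 10 points.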

Experiment [2] addresses T2, delF508-CFTR (Homo sapiens, UniProt P13569, DEL508-508).
T2 construct: functional activity of the CFTR channel (Chloride ion transport) in patient derived primary human bronchial epithelial cells; host or cells: patient-derived primary human bronchial epithelial cells (HBECs), delF508-CFTR
Description: delF508-CFTR functional activity in primary human bronchial epithelial cells (HBECs), Multi-Transepithelial Clamp Circuit (MTECC-24) assay, equivalent short circuit current. It is filed as cell-based. The settings on record: primary CF HBECs; for MTECC24 CFHBEC-Amax %: relative to reference combination 2 μM 3-(6-(1-(2,2-difluorobenzo[d][1,3]dioxol-5-yl)cyclopropane-1-carboxamido)-3-methylpyridin-2-yl)benzoic acid (24 h) + 0.5 μM N-(2,4-di-tert-butyl-5-hydroxyphenyl)-4-oxo-1,4-dihydroquinoline-3-carboxamide; for pEC50: test compound added 24 h before assay, potentiator (S)-3-amino-6-methoxy-N-(3,3,3-trifluoro-2-hydroxy-2-methylpropyl)-5-(trifluoromethyl)picolinamide present at assay, mean of at least two replicates, read-out: MTECC24 CFHBEC-EC50. An excerpt:
Measurement of delF508-CFTR Functional Activity in Primary Human Bronchial Epithelial Cells (HBECs) Using Multi-Transepithelial Clamp Circuit (MTECC-24) Assay
This assay measures the functional activity of the CFTR channel (Chloride ion transport) in patient derived primary human bronchial epithelial cells with forskolin activation and in the presence of the CFTR corrector wherein the corrector is a compound of the invention and the potentiator is (S)-3-amino-6-methoxy-N-(3,3,3-trifluoro-2-hydroxy-2-methylpropyl)-5-(trifluoromethyl)picolinamide.
Primary human delF508-CFTR bronchial epithelial cells were purchased from Asterand and cultured according to previously established methods (Fulcher et al. (2005) Methods Mol Med 107: 183-206). Briefly, vendor supplied cells were rapidly defrosted and added to a T175 flask in 50 mL growth media (Lonza BEBM media with Lonza BEGM singlequots). Media was replaced after 24 h and then cells were fed every other day until cells were 80-90% confluent, at which point cells were cryopreserved. These P1 vials were thawed at 37° C. as needed and added to T175 flasks in 50 mL growth media at 5×10^5 cells/flask. Media was replaced after 24 h, and then cells were fed every other day until 80-90% confluent. Cells were lifted with 5 mL Accutase at 37° C. for 5 minutes, centrifuged at 1000 rpms for 5 min (300 g), and resuspended in differentiation media (50% BEBM in DMEM, BEGM singlequots, all trans retinoic acid (5×10·8M)). Cells were then counted and cell suspension was added to collagen coated inserts at 3×10^4 cells/insert in 0.15 mL with 0.5 mL differentiation media on the basolateral side.
Apical and basolateral media were replaced on alternate days, and following day 7 (or when confluent plus 2 days), air liquid interface was established for approximately two weeks by removal of apical media. One day prior to use on the MTECC24 system (EP-Devices, EP Design, Belgium), 0.15 mL of warmed (37° C.) PBS was added to the apical surface of the cultures and returned to humidifier (37° C., 5% CO2 incubator) for 30 min before aspirating the apical surface to remove any mucus.
Compound treatments were then prepared. Compound dilutions, typically a 10 point concentration response with 1 in 3 dilution steps, were made in 100% DMSO before dilution 1 in 1000 into differentiation medium with a final DMSO concentration of 0.1% or 0.2% for the study. Compound containing medium was then transferred into the wells of a 24 well plate at 0.5 mL per well and warmed for 30 min in a 37° C. incubator prior to transferring washed inserts into the compound containing plates. Cells were incubated in compound containing medium (basolateral only) for 24 h prior to measurement in the MTECC24 system.
Following 24 hr treatment, compound dilutions were prepared again, diluted 1 in 1000 into 37° C. assay medium (F-12 Coon's modified, 20 mM HEPES pH7.4 with TRIS Base, No FCS or bicarbonate). Cells which were treated for 24 h with test compound were then transferred into plates containing 0.75 mL compound treatment in assay medium (basolateral) and 0.25 mL of the compound containing assay medium was added to the apical surface. The plates were then transferred to the heated plate compartments of the MTECC24 system for 45 min prior to measurements (this can also be done in a non-CO2 37° C. humidified incubator). Basolateral temperature should not exceed 36.5° C. and apical temperature should be approximately 35.5° C.
Modulators were added sequentially as follows while the MTECC24 instrument recorded the equivalent short circuit current (Ieq)
Prior to dilution into F-12 medium the stocks are as follows: Amiloride stock is 10 mM in H2O
Forskolin Stock is 10 mM in 100% DMSO
(S)-3-amino-6-methoxy-N-(3,3,3-trifluoro-2-hydroxy-2-methylpropyl)-5-(trifluoromethyl)picolinamide is 0.5 mM stock in 100% DMSO INH-172 (4-[[4-Oxo-2-thioxo-3-[3-trifluoromethyl)phenyl]-5-thiazolidinylidene]methyl]benzoic acid) stock is 30 mM in 100% DMSO […]

T1 sequence (P13569 with tags, fused parts or gaps DEL508-508): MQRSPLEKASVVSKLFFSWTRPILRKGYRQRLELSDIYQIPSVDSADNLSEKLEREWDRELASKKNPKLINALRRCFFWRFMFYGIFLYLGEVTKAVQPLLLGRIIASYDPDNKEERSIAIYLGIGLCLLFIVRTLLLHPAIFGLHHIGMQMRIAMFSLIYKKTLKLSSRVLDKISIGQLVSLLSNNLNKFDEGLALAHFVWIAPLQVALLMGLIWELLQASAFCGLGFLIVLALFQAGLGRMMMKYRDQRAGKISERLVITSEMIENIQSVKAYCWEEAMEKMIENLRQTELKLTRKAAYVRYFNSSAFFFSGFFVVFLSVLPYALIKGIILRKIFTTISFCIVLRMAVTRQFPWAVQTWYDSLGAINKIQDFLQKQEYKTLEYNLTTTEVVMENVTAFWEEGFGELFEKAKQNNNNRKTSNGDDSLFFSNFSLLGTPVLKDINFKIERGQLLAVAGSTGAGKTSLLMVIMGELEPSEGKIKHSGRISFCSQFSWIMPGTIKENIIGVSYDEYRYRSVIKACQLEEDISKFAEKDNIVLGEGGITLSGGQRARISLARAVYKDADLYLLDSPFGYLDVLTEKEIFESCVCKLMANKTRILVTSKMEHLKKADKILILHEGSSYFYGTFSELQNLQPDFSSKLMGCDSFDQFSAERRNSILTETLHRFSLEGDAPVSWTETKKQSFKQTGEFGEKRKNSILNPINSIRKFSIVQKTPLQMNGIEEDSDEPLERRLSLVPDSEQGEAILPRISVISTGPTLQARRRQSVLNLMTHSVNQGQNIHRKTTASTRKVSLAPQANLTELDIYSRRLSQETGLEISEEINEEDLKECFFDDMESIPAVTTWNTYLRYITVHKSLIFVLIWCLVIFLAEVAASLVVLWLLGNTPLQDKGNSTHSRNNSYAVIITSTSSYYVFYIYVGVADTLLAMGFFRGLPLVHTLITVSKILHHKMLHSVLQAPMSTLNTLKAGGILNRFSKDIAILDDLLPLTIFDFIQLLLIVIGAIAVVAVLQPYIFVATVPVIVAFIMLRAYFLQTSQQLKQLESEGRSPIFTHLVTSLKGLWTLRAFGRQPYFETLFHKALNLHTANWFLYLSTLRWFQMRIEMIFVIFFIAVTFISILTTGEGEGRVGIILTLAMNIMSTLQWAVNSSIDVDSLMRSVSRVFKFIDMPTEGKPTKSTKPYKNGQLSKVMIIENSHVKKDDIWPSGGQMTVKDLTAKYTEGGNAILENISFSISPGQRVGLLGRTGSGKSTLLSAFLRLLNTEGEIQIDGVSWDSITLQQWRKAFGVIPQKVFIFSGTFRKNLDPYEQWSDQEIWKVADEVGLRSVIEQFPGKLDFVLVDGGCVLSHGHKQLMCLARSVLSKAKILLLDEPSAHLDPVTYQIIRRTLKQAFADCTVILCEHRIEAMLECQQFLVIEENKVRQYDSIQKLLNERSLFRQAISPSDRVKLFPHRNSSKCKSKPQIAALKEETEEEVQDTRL
T2 sequence (P13569 with tags, fused parts or gaps DEL508-508): as above

Turning to `Cc1ccc(C2CCCCC2)c(OC2(C(=O)NS(=O)(=O)c3cccc(N4CC(O)C4)n3)CC2)c1` [Example 2-1, 1-(2-Cyclohexyl-5-methylphenoxy)-N-((6-(3-hydroxyazetidin-1-yl)pyridin-2-yl)sulfonyl)cyclopropanecarboxamide], in experiment [1], the Emax was determined as 668% and the pEC50 (commonly the EC50 on a negative log10 scale, so that one unit is a factor of ten) is 5.63. In addition, in experiment [2], the “MTECC24 CFHBEC-Amax %” value is 97% and the pEC50 is 8.30.
For `Cc1ccc(C2CCCCC2)c(OC2(C(=O)NS(=O)(=O)c3cccc(N4CCN(c5ccccc5)CC4)n3)CC2)c1` [Example 2-54, 1-(2-Cyclohexyl-5-methylphenoxy)-N-((6-(4-phenylpiperazin-1-yl)pyridin-2-yl)sulfonyl)cyclopropane-1-carboxamide] the same measures were 513%, 6.19, 70% and 7.85.
As for `O=C(NS(=O)(=O)c1cccc(N2CC[C@H](O)C2)n1)C1(Oc2cc(Cl)ccc2NC2CCC(C(F)(F)F)CC2)CC1` (stereo partly drawn) [Example 9-19, (S)-1-(5-Chloro-2-((4-(trifluoromethyl)cyclohexyl)amino)phenoxy)-N-((6-(3-hydroxypyrrolidin-1-yl)pyridin-2-yl)sulfonyl)cyclopropanecarboxamide], in experiment [1], the Emax is 594% and the pEC50 was 5.62. In experiment [2], the “MTECC24 CFHBEC-Amax %” value is recorded as 161.2% and the pEC50 is 6.13.
Take `Cc1ccc(-c2cccc(C(F)F)c2)c(OC2(C(=O)NS(=O)(=O)c3cccc(N4CC[C@H](O)C4)n3)CC2)c1` [Example 5-9, (S)-1-((3′-(Difluoromethyl)-4-methyl-[1,1′-biphenyl]-2-yl)oxy)-N-]: in experiment [1], the Emax came out at 298% and the pEC50 was 5.51. Also, in experiment [2], the “MTECC24 CFHBEC-Amax %” value came out at 87% and the pEC50 was 7.12.
For `Cc1ccc([C@H]2CC[C@@H](F)CC2)c(OC2(C(=O)NS(=O)(=O)c3cccc(N4CC(C)(O)C4)n3)CC2)c1` (single isomer, unassigned) [Example 4-23, 1-(2-(Cis-4-fluorocyclohexyl)-5-methylphenoxy)-N-((6-(3-hydroxy-3-methylazetidin-1-yl)pyridin-2-yl)sulfonyl)cyclopropane-1-carboxamide] the same measures were 292%, 5.38, 138% and 6.78.
Take `CC(C)Cc1ccc(Cl)cc1OC1(C(=O)NS(=O)(=O)c2cccc(NC[C@H](C)O)n2)CC1` [Example 4-11, (S)-1-(5-Chloro-2-isobutylphenoxy)-N-((6-((2-hydroxypropyl)amino)pyridin-2-yl)sulfonyl)cyclopropane-1-carboxamide]: in experiment [1], the Emax was 115% and the pEC50 was 5.51. In experiment [2], the “MTECC24 CFHBEC-Amax %” value is 66% and the pEC50 was 7.46.
On to `O=C(NS(=O)(=O)c1cccc(N2CC(O)C2)n1)C1(Oc2cc(Cl)ccc2C2CCCCC2)CC1` [Example 2-57, 1-(5-Chloro-2-cyclohexylphenoxy)-N-((6-(3-hydroxyazetidin-1-yl)pyridin-2-yl)sulfonyl)cyclopropane-1-carboxamide], for which, in experiment [1], the Emax was found to be 328% and the negative-log EC50 (pEC50) was 5.51. In addition, in experiment [2], the “MTECC24 CFHBEC-Amax %” value was found to be 102% and the pEC50 is 7.92.
Turning to `O=C(NS(=O)(=O)c1cccc(N2CC[C@H](O)C2)n1)C1(Oc2cc(Cl)ccc2N2CC3(CCC3)C2)CC1` [Example 9-20, (S)-1-(5-Chloro-2-(2-azaspiro[3.3]heptan-2-yl)phenoxy)-N-((6-(3-hydroxypyrrolidin-1-yl)pyridin-2-yl)sulfonyl)cyclopropanecarboxamide], in experiment [1], the Emax stood at 729% and the pEC50 is 5.54. Moreover, in experiment [2], the “MTECC24 CFHBEC-Amax %” value came out at 98.5% and the pEC50 is 6.08.
Turning to `CC1(C)CCN(c2ccc(Cl)cc2OC2(C(=O)NS(=O)(=O)c3cccc(N4CCC(c5ccccn5)CC4)n3)CC2)CC1` [Example 10-3, 1-(5-chloro-2-(4,4-dimethylpiperidin-1-yl)phenoxy)-N-((6-(4-(pyridin-2-yl)piperidin-1-yl)pyridin-2-yl)sulfonyl)cyclopropanecarboxamide], in experiment [1], the Emax stood at 493% and the pEC50 was 6.22.
Regarding `C=C(c1ccc(F)cc1OC1(C(=O)NS(=O)(=O)c2cccc(N3CCN(c4ccccc4)CC3)n2)CC1)C(F)(F)F` [Example 4-18, 1-(5-Fluoro-2-(3,3,3-trifluoroprop-1-en-2-yl)phenoxy)-N-((6-(4-phenylpiperazin-1-yl)pyridin-2-yl)sulfonyl)cyclopropane-1-carboxamide], in experiment [1], the Emax worked out at 160% and the pEC50 was 5.47.
On to `CC(C)[C@H](CO)Nc1cccc(S(=O)(=O)NC(=O)C2(Oc3cc(Cl)ccc3N3CCC(C)(C)CC3)CC2)n1` [Example 9-38, (R)-1-(5-Chloro-2-(4,4-dimethylpiperidin-1-yl)phenoxy)-N-((6-((1-hydroxy-3-methylbutan-2-yl)amino)pyridin-2-yl)sulfonyl)cyclopropane-1-carboxamide], for which, in experiment [1], the Emax was 789% and the pEC50 was 5.83.
In the case of `Cc1ccc(C2CCCCC2)c(OC2(C(=O)NS(=O)(=O)c3cccc(N4CCC(NC(=O)OC(C)(C)C)CC4)n3)CC2)c1` [Example 2-43, Tert-butyl (1-(6-(N-(1-(2-cyclohexyl-5-methylphenoxy)cyclopropanecarbonyl)sulfamoyl)pyridin-2-yl)piperidin-4-yl)carbamate], in experiment [1], the Emax was found to be 556% and the pEC50 is 5.95.
Regarding `C[C@]1(O)CCN(c2cccc(S(=O)(=O)NC(=O)C3(Oc4cc(Cl)ccc4N4CCC5(CC4)CC5)CC3)n2)C1` [Example 9-28, (S)-1-(5-Chloro-2-(6-azaspiro[2.5]octan-6-yl)phenoxy)-N-((6-(3-hydroxy-3-methylpyrrolidin-1-yl)pyridin-2-yl)sulfonyl)cyclopropanecarboxamide], in experiment [1], the Emax worked out at 755% and the negative logarithm of the EC50 (pEC50) was 6.26.
For the compound `CC1(O)CCN(c2cccc(S(=O)(=O)NC(=O)C3(Oc4cc(Cl)ccc4C4CC5(CCC5)C4)CCCC3)n2)C1` (single isomer, unassigned) [Example 7-18-1, 1-(5-Chloro-2-(spiro[3.3]heptan-2-yl)phenoxy)-N-((6-(3-hydroxy-3-methylpyrrolidin-1-yl)pyridin-2-yl)sulfonyl)cyclopentane-1-carboxamide], in experiment [1], the “DelF508-CFTR-HRP Amax %” value was 493.9% and the pEC50 was 6.05.
